This assay addresses T1, rat ROMK (Rattus norvegicus, UniProt P35560).
T1 construct: expressed in transfected cells; host or cells: 293T cell line 208-4 (lentiviral transduction, GFP coexpressed)
T1 sequence (P35560 1-391): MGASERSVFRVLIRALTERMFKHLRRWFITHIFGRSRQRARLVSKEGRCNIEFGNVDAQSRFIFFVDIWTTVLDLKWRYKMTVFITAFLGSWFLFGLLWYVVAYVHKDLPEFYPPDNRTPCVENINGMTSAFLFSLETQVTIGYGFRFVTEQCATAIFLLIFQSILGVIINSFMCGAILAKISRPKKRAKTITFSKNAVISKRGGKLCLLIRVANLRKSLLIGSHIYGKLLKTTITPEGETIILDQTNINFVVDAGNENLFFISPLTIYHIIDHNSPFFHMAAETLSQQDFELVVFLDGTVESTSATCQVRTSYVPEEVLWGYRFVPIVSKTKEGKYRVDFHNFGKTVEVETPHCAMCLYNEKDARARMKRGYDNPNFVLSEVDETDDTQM
Kind of assay: Whole-cell patch-clamp of ROMK currents in 208–4 cells. It counts as cell-based. Conditions: blockade at 1 μM estimated from fitted Hill curve (four parameters), whole-cell conductance, n = 3–6, read-out: Activity (ROMK channel blocking activity, percentage of blockade at 1 μM). The procedure, abridged:
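ROMK stably expressed in 208–4 cells; GIRK transiently in 293T, recorded 24 h post-transfection; 25°C, Tyrode (high-K+ 50 mM for GIRK), K-aspartate/KCl pipette with 3 mM MgATP. Steps −150 to 10 mV from −70 mV; currents 60 s after peptide; conductance from I-V slope −140 to −100 mV, Ba2+-resistant current subtracted, normalized to 0 μM TPN.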

Bridge positions count the residues as written; N and C are the ends. Ends that are not written are not given here. Peptide text beside a SMILES is read from it. Bounds are passed on as bounds.

With `CC[C@H](C)[C@@H]1NC(=O)[C@H](CCCNC(=N)N)NC(=O)[C@H](CCCNC(=N)N)NC(=O)[C@H](CC(N)=O)NC(=O)[C@@H]2CSSC[C@@H](C(=O)N[C@@H](C)C(=O)N[C@@H](CCCCN)C(=O)N[C@@H](CCCCN)C(N)=O)NC(=O)[C@H](CCCCN)NC(=O)[C@H](CCCCN)NC(=O)[C@H](Cc3c[nH]c4ccccc34)NC(=O)[C@H](CSSC[C@H](NC(=O)[C@H](CC(C)C)NC(=O)[C@H](C)N)C(=O)N[C@@H](CC(N)=O)C(=O)N2)NC(=O)[C@H](CCC(N)=O)NC(=O)[C@H](Cc2c[nH]cn2)NC(=O)[C@@H]2CCCN2C(=O)[C@H]([C@@H](C)CC)NC1=O` [Peptide 67, TPN-RQ(G19A)] (H-ALCNCNRRIIPHQCWKKCAKK-NH2; disulfide 3-14, 5-18), the inhibition at 1 µM is 60 to 80%.

As for `CC[C@H](C)[C@@H]1NC(=O)[C@H](CCCNC(=N)N)NC(=O)[C@H](CCCNC(=N)N)NC(=O)[C@H](CC(N)=O)NC(=O)[C@@H]2CSSC[C@@H](C(=O)NCC(=O)N[C@@H](C)C(=O)N[C@@H](CCCCN)C(N)=O)NC(=O)[C@H](CCCCN)NC(=O)[C@H](CCCCN)NC(=O)[C@H](Cc3c[nH]c4ccccc34)NC(=O)[C@H](CSSC[C@H](NC(=O)[C@H](CC(C)C)NC(=O)[C@H](C)N)C(=O)N[C@@H](CC(N)=O)C(=O)N2)NC(=O)[C@H](CCC(N)=O)NC(=O)[C@H](Cc2c[nH]cn2)NC(=O)[C@@H]2CCCN2C(=O)[C@H]([C@@H](C)CC)NC1=O` [Peptide 68, TPN-RQ(K20A)] (H-ALCNCNRRIIPHQCWKKCGAK-NH2; disulfide 3-14, 5-18), the inhibition at 1 µM is 40 to 60%.

For the compound `CC[C@H](C)[C@@H]1NC(=O)[C@H](CCCNC(=N)N)NC(=O)[C@H](CCCNC(=N)N)NC(=O)[C@H](CC(N)=O)NC(=O)[C@@H]2CSSC[C@@H](C(=O)NCC(=O)N[C@@H](CCCCN)C(=O)N[C@@H](C)C(N)=O)NC(=O)[C@H](CCCCN)NC(=O)[C@H](CCCCN)NC(=O)[C@H](Cc3c[nH]c4ccccc34)NC(=O)[C@H](CSSC[C@H](NC(=O)[C@H](CC(C)C)NC(=O)[C@H](C)N)C(=O)N[C@@H](CC(N)=O)C(=O)N2)NC(=O)[C@H](CCC(N)=O)NC(=O)[C@H](Cc2c[nH]cn2)NC(=O)[C@@H]2CCCN2C(=O)[C@H]([C@@H](C)CC)NC1=O` [Peptide 69, TPN-RQ(K21A)] (H-ALCNCNRRIIPHQCWKKCGKA-NH2; disulfide 3-14, 5-18), the inhibition at 1 µM was 40 to 60%.

As for `CC[C@H](C)[C@@H]1NC(=O)[C@H](CCCNC(=N)N)NC(=O)[C@H](CCCNC(=N)N)NC(=O)[C@H](CC(N)=O)NC(=O)[C@@H]2CSSC[C@@H](C(=O)NCC(=O)N[C@@H](CCCCN)C(=O)N[C@@H](CCCCN)C(N)=O)NC(=O)[C@H](CCCCN)NC(=O)[C@H](CCCCN)NC(=O)[C@H](Cc3c[nH]c4ccccc34)NC(=O)[C@H](CSSC[C@H](N)C(=O)N[C@@H](CC(N)=O)C(=O)N2)NC(=O)[C@H](CCC(N)=O)NC(=O)[C@H](Cc2c[nH]cn2)NC(=O)[C@@H]2CCCN2C(=O)[C@H]([C@@H](C)CC)NC1=O` [Peptide 70, TPN-RQ(Δ1A/Δ2L)] (H-CNCNRRIIPHQCWKKCGKK-NH2; disulfide 1-12, 3-16), the inhibition at 1 µM is 60 to 80%.

Take `CC[C@H](C)[C@@H]1NC(=O)[C@H](CCCNC(=N)N)NC(=O)[C@H](CCCNC(=N)N)NC(=O)[C@H](CC(N)=O)NC(=O)[C@@H]2CSSC[C@@H](C(=O)NCC(N)=O)NC(=O)[C@H](CCCCN)NC(=O)[C@H](CCCCN)NC(=O)[C@H](Cc3c[nH]c4ccccc34)NC(=O)[C@H](CSSC[C@H](NC(=O)[C@H](CC(C)C)NC(=O)[C@H](C)N)C(=O)N[C@@H](CC(N)=O)C(=O)N2)NC(=O)[C@H](CCC(N)=O)NC(=O)[C@H](Cc2c[nH]cn2)NC(=O)[C@@H]2CCCN2C(=O)[C@H]([C@@H](C)CC)NC1=O` [Peptide 71, TPN-RQ(Δ20K/Δ21K)] (H-ALCNCNRRIIPHQCWKKCG-NH2; disulfide 3-14, 5-18): the inhibition at 1 µM was 20 to 40%.

Turning to “ARIIPHQK-NH2 [Peptide 23, TPN-RQ 7-13(R7A) + K]”, the inhibition at 1 µM is under 20%.

CNRIIIPH-NH2 [Peptide 8, TPN 5–12]: the inhibition at 1 µM is under 20%.

On to IIIPHMCW-NH2 [Peptide 11, TPN 8–15], for which the inhibition at 1 µM was under 20%.
